Measured values: US9849101B2, “Method for enhancing amidohydrolase activity of fatty acid amide hydrolase” (Research Foundation of the City University of New York, priority 2013, dated 2017)
Values belong to the compound of their own block, whether it stands above or below them.

Columns and labels:
[1] = tested on: Arabidopsis thaliana wild type (Col-0) seedlings; assay: Arabidopsis seedling growth (cotyledon size, primary root elongation); assay type: in vivo
rat E18 cortical neurons = assay: Viability of cultured primary neurons (calcein fluorescence), tBHP oxidative stress; assay type: cell-based
Method: Commercially obtained Sprague/Dawley rat E18 cortical tissue was allowed to settle for 5-10 minutes at room temperature, the shipping media was removed (reserved at 37° C.), and the tissue was enzymatically treated with NeuroPapain dissolved in NeuroPrep Medium (2 mg/ml, 2.5 ml) for 28 minutes at 37° C. with gentle swirling every 7 minutes. Treated tissue was centrifuged for 1.5 minutes at 200×g and the cells were dissociated by gentle trituration in 1 ml of the reserved shipping medium. Cells were collected by centrifugation as above and re-suspended by gentle trituration in 1 ml of NeuroPure plating medium. Viable cells were counted, (Nexcelom Auto T4; Nexcelom Bioscience LLC. Lawrence, Mass.) re-suspended in 9 ml of NeuroPure plating medium plus enough Neurobasal medium (supplemented with B27; GlutaMAX I, 2 mM; Penicillin, 50 U/ml; Streptomycin, 50 μg/ml) to achieve a density of 250,000 cells/ml, and seeded in BD PureCoat™ black-walled amine-coated 96-well plates in a 100 μl volume. […]
Oxidative stress was induced by the addition of concentrated tert-butyl hydrogen peroxide (tBHP) to achieve a final concentration of 7.5 μM. […] For each condition, six replicate wells were measured and the mean value was used for statistical analyses. Data was analyzed and plotted using Prism 5.0 (GraphPad Software Inc., La Jolla, Calif.). […]

rat brain FAAH = target: T1, rat brain FAAH (Rattus norvegicus, UniProt P97612); conditions: reported value; read-out: IC50 for anandamide hydrolysis; cited from earlier work
T1 construct: host or cells: rat brain
T1 sequence (P97612 1-579): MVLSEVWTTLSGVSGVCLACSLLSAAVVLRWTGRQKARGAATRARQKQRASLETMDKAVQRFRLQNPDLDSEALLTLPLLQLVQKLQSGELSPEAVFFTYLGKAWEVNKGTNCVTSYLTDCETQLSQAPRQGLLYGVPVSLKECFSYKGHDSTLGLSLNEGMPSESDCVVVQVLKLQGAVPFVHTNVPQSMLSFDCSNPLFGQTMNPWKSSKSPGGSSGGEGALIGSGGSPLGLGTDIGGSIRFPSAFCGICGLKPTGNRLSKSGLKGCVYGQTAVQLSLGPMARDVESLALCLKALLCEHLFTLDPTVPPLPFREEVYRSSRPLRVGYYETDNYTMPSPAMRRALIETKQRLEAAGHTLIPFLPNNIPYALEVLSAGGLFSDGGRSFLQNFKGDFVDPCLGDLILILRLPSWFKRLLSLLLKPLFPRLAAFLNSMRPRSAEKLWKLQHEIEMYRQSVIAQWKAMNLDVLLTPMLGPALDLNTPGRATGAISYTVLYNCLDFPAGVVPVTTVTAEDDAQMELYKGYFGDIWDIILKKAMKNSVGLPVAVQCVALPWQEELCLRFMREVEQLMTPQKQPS

rat FAAH [2] = target: T2, rat FAAH (Rattus norvegicus, UniProt P97612); assay: NAE amidohydrolase assay on purified recombinant rat FAAH; assay type: biochemical
T2 construct: made in house; host or cells: E. coli TOP10
T2 sequence (P97612 1-579): T1 sequence (P97612 1-579)

rat FAAH [3] = target: T2, rat FAAH; assay: Ethanolamine inhibition assay, rat FAAH; assay type: biochemical
At-FAAH = target: T3, At-FAAH (Arabidopsis thaliana, UniProt Q7XJJ7); assay: Ethanolamine inhibition assay, At-FAAH; assay type: biochemical
T3 construct: made in house; host or cells: E. coli TOP10
T3 sequence (Q7XJJ7 1-607): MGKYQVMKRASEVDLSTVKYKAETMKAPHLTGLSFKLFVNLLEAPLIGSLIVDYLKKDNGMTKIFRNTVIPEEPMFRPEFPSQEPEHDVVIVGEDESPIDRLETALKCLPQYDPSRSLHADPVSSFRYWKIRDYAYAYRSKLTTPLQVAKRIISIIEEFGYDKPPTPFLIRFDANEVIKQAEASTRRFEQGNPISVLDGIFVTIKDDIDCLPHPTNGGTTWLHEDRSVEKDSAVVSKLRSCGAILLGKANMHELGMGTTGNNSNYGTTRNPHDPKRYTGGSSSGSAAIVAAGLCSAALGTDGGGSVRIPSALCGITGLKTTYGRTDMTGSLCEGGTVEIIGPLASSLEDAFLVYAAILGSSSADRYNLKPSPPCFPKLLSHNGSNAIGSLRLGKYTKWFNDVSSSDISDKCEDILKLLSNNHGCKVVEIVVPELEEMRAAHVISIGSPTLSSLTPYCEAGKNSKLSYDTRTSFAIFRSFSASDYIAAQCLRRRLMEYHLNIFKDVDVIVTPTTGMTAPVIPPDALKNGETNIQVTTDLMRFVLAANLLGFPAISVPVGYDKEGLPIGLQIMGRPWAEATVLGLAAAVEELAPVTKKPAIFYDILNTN

[4] = target: T4, NAE amidohydrolase activity from crude seedling extracts (Arabidopsis thaliana, UniProt Q7XJJ7); assay: Plant amidohydrolase assay on crude seedling protein extract; assay type: biochemical; conditions: [1-14C]-NAE 12:0, 11-d-old seedlings, 2 hours
T4 construct: from tissue; host or cells: 11-day-old Arabidopsis thaliana Col-0 seedlings, total solubilized protein
T4 sequence (Q7XJJ7 1-607): T3 sequence (Q7XJJ7 1-607)

[5] = target: T5, Arabidopsis thaliana FAAH (AT-FAAH) (Arabidopsis thaliana, UniProt Q7XJJ7); assay: NAE amidohydrolase assay on purified recombinant At-FAAH; assay type: biochemical
T5 construct: made in house; host or cells: E. coli TOP10
T5 sequence (Q7XJJ7 1-607): T3 sequence (Q7XJJ7 1-607)

[6] = 2 μg protein, 100 μM-300 μM substrate, TLC
[7] = 100 μM [1-14C]-NAE 12:0 with 100 μM compound
[8] = 100 μM compound, up to 10 mM ethanolamine, 100 μM [1-14C]-NAE 12:0

SMILES: CCCCCCCCCCCC(=O)NCCO [NAE 12:0, N-lauroylethanolamine, reference compound]
seedling growth on exogenous application ([1]; applied exogenously): inhibits seedling growth

SMILES: CCCCCCCCCCCCCCCC(=O)NCCO [NAE 16:0, N-palmitoylethanolamine]
reversal of cardanol-induced exacerbation of tBHP mediated cell death (rat E18 cortical neurons; 1 hour prior to addition of 1 nM cardanol-EA): dose-dependent reversal
IC50 (rat brain FAAH): 5.1 µM

apparent Vmax (rat FAAH [2]): increased
hydrolysis of the compound as substrate to acid form and ethanolamine (rat FAAH [2]; [6]): not suitable substrates
amidohydrolase activity toward NAE (rat FAAH [2]; [7]): increased
increase of activity by a factor (rat FAAH [2]; 100 μM compound, NAE 16:0 and NAE 12:0): about 5±2.2
Kcat versus solvent control (rat FAAH [2]; NAE 20:4 substrate, 100 μM compound): increase in Kcat
NAE amidohydrolase activity of crude seedling extracts [4]: enhancement
apparent Vmax [5]: increased
hydrolysis of the compound as substrate to acid form and ethanolamine [5, 6]: not suitable substrates
amidohydrolase activity toward NAE [5, 7]: increased
increase of activity by a factor ([5]; 100 μM compound, different [1-14C]-NAEs): about 4±1.2
Km app versus solvent control ([5]; NAE 12:0 substrate, 100 μM compound, T-test confidence level 95%): No statistical difference
non-enzymatic hydrolysis of NAE to free fatty acid ([5]; heat-denaturated enzyme, 100 μM compound): no activity
SMILES: CCCCCCCCCCCCCCCc1cccc(OCC(=O)NCCO)c1 [PDP-EA, N-(2-hydroxyethyl)-2-(3-pentadecylphenoxy)acetamide]
protection from ethanolamine product inhibition (rat FAAH [3]; [8]): relieved this ethanolamine inhibition almost completely
reversal of negative seedling growth effects of exogenous NAE 12:0 ([1]; 30 μM NAE 12:0, 20 μM compound, 11 days): reverse partially
seedling growth (cotyledon size), compound alone ([1]; compound alone, 11 days): positive impact on seedling growth
reversal of negative effects of NAE 12:0 on cotyledon size ([1]; with NAE 12:0, 11 days): partially reversed
protection from ethanolamine product inhibition (At-FAAH; [8]): relieved this ethanolamine inhibition almost completely

SMILES: NC(=O)c1cccc(-c2cccc(OC(=O)NC3CCCCC3)c2)c1 [URB597]
reversal of cardanol-induced exacerbation of tBHP mediated cell death by FAAH inhibitor (rat E18 cortical neurons): completely reversed

NAE hydrolase activity at increasing ethanolamine concentrations (rat FAAH [3]; 0-100 mM ethanolamine): dose-dependent reduction
NAE hydrolase activity at increasing ethanolamine concentrations (At-FAAH; 0-100 mM ethanolamine): dose-dependent reduction
SMILES: NCCO [ethanolamine]
